Among the data in US6908931B2, “Tetrahydroisoquinoline derivatives as melatonin MT2 antagonists” (Bristol-Myers Squibb Company, priority 2003, dated 2005) are IC50 values, retold here.

Molecules are shown by their SMILES. pIC50: −log10 of the molar value.

This test deals with T1, human MT2 receptor (Homo sapiens, UniProt P49286).
T1 construct: melatonin MT1 and MT2 receptors cDNA were individually subcloned into pcDNA3 and introduced into NIH-3T3 cells using Lipofectamine; expressed in transfected cells
T1 sequence (P49286 1-362): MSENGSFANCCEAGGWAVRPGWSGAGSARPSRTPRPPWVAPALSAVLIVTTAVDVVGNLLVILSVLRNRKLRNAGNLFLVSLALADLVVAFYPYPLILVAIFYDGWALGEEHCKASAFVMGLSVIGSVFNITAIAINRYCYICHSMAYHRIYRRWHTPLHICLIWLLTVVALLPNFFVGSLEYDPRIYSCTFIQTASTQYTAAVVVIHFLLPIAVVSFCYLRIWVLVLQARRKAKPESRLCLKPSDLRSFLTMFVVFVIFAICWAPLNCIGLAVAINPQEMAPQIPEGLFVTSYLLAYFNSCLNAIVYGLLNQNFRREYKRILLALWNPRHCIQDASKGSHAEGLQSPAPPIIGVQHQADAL
The experiment in a line: Melatonin receptor binding assay (MT2), 2-[125I]-iodomelatonin. As to conditions: membrane homogenates of NIH-3T3 cells expressing MT2; 2-[125I]-iodomelatonin 0.2 nM; 37° C., 1 hour; read-out: MT2 IC50. On the procedure:
Melatonin receptor binding assay.
Membrane homogenates: melatonin MT1 and MT2 receptors cDNA were individually subcloned into pcDNA3 and introduced into NIH-3T3 cells using Lipofectamine. […] For preparing membrane homogenates, pellets are thawed on ice, and re-suspended in TME buffer in the presence of 10 μg/ml aprotinin and leupeptin, and 100 μM phenylmethylsulfonylfluoride. The cells were then homogenized using a dounce homogenizer, and centrifuged. The resulting pellet was re-suspended with dounce homogenizer in TME (supplemented with the above protease inhibitors) and frozen. On the day of assay, a small aliquot was thawed on ice and re-suspended in the ice cold TME (1:50-1:100 v/v) and held on ice until assayed. Incubation is at 37° C. for 1 hour. Reaction is terminated by filtration. Filters were washed 3 times.
For the compound `COc1cc2c(cc1OC)C(CC(c1ccccc1)c1ccccc1)N(C(C)=O)CC2` (stereo not drawn) [Example 1, N-acetyl 1-(2,2-diphenyleth-1-yl)-6,7-dimethoxy-1,2,3,4-tetrahydroisoquinoline], the pIC50 is above 7.00.
Then `COc1cc2c(cc1OC)C(CC(c1ccccc1)c1ccccc1)N(C=O)CC2` (stereo not drawn) [Example 2, N-formyl 1-(2,2-diphenyleth-1-yl)-6,7-dimethoxy-1,2,3,4-tetrahydroisoquinoline], with above 7.00; and `CCC(=O)N1CCc2cc(OC)c(OC)cc2C1CC(c1ccccc1)c1ccccc1` (stereo not drawn) [Example 3, N-propionyl 1-(2,2-diphenyleth-1-yl)-6,7-dimethoxy-1,2,3,4-tetrahydroisoquinoline], with above 7.00.
Then `CCCC(=O)N1CCc2cc(OC)c(OC)cc2C1CC(c1ccccc1)c1ccccc1` (stereo not drawn) [Example 4, N-butyryl 1-(2,2-diphenyleth-1-yl)-6,7-dimethoxy-1,2,3,4-tetrahydroisoquinoline], with above 7.00.
Regarding `COc1cc2c(cc1OC)C(CC(c1ccccc1)c1ccccc1)N(C(=O)C1CC1)CC2` (stereo not drawn) [Example 5, N-cyclopropylcarbonyl 1-(2,2-diphenyleth-1-yl)-6,7-dimethoxy-1,2,3,4-tetrahydroisoquinoline], the pIC50 is above 7.00.
As to `COc1cc2c(cc1OC)C(CC(c1ccccc1)c1ccccc1)N(C(=O)c1ccccc1)CC2` (stereo not drawn) [Example 6, N-benzoyl 1-(2,2-diphenyleth-1-yl)-6,7-dimethoxy-1,2,3,4-tetrahydroisoquinoline], the pIC50 was 6.00 to 7.00.
With `COc1cc2c(cc1OC)C(CC(c1ccccc1)c1ccccc1)N(C(=O)C(F)(F)F)CC2` (stereo not drawn) [Example 7, N-trifluoroacetyl 1-(2,2-diphenyleth-1-yl)-6,7-dimethoxy-1,2,3,4-tetrahydroisoquinoline], the pIC50 was 6.00 to 7.00.
Take `COc1cc2c(cc1OC)C(CC(c1ccccc1)c1ccccc1)N(C(N)=O)CC2` (stereo not drawn) [Example 8, N-carbamoyl 1-(2,2-diphenyleth-1-yl)-6,7-dimethoxy-1,2,3,4-tetrahydroisoquinoline]: the pIC50 was above 7.00.
With `CNC(=O)N1CCc2cc(OC)c(OC)cc2C1CC(c1ccccc1)c1ccccc1` (stereo not drawn) [Example 9, N-methylcarbamoyl 1-(2,2-diphenyleth-1-yl)-6,7-dimethoxy-1,2,3,4-tetrahydroisoquinoline], the negative logarithm of the IC50 (pIC50) is above 7.00.
Regarding `COC(=O)N1CCc2cc(OC)c(OC)cc2C1CC(c1ccccc1)c1ccccc1` (stereo not drawn) [Example 10, N-carbomethoxy 1-(2,2-diphenyleth-1-yl)-6,7-dimethoxy-1,2,3,4-tetrahydroisoquinoline], the negative logarithm of the IC50 (pIC50) was above 7.00.
As for `COc1cc2c(cc1OC)C(CC(c1ccccc1)c1ccccc1)N(S(C)(=O)=O)CC2` (stereo not drawn) [Example 12], the pIC50 is above 7.00.
`COc1cc2c(cc1OC)C(CC(c1ccccc1)c1ccccc1)N(C(=O)c1cccs1)CC2` (stereo not drawn) [Example 13]: the pIC50 was 6.00 to 7.00.
In the case of `COc1cc2c(cc1OC)C(CCc1ccccc1)N(C(C)=O)CC2` (stereo not drawn) [Example 14], the negative-log IC50 (pIC50) is above 7.00.
For the compound `COc1cc2c(cc1OC)C(CCc1ccccc1)N(C=O)CC2` (stereo not drawn) [Example 15], the pIC50 is above 7.00.
As to `COc1cc2c(cc1OC)C(CCc1ccccc1)N(C(N)=O)CC2` (stereo not drawn) [Example 16], the pIC50 is 6.00 to 7.00.
Consider `COc1ccc2c(c1)CCN(C(C)=O)C2CC(c1ccccc1)c1ccccc1` (stereo not drawn) [Example 17], for which the pIC50 was 6.00 to 7.00.
`COc1cc2c(cc1OC)C(CC(C)c1ccccc1)N(C(C)=O)CC2` (stereo not drawn) [Example 18]: the pIC50 was 6.00 to 7.00.
Turning to `COc1ccc2c(c1)C(CC(c1ccccc1)c1ccccc1)N(C(C)=O)CC2` (stereo not drawn) [Example 19], the pIC50 is above 7.00.
As for `COc1ccc2c(c1)C(CC(c1ccccc1)c1ccccc1)N(C(C)=O)CC2` (stereo not drawn) [Example 20], the pIC50 was above 7.00.
As for `COc1cc2c(c(OC)c1)C(CC(c1ccccc1)c1ccccc1)N(C(C)=O)CC2` (stereo not drawn) [Example 21], the pIC50 is above 7.00.
Turning to `COc1cc2c(cc1Br)CCN(C(C)=O)C2CC(c1ccccc1)c1ccccc1` (stereo not drawn) [Example 22], the pIC50 was above 7.00.
As to `COc1ccc2c(c1OC)CCN(C(C)=O)C2CC(c1ccccc1)c1ccccc1` (stereo not drawn) [Example 24], the pIC50 is 6.00 to 7.00.
The value for `COc1ccc(C(CC2c3cc(OC)c(OC)cc3CCN2C(C)=O)c2ccc(OC)cc2)cc1` (stereo not drawn) [Example 25] was 6.00 to 7.00; that for `COc1cc2c(cc1OC)C(CC1c3ccccc3-c3ccccc31)N(C(C)=O)CC2` (stereo not drawn) [Example 26] was 6.00 to 7.00.
In the case of `CC(=O)N1CCc2cc(F)ccc2C1CC(c1ccccc1)c1ccccc1` (stereo not drawn) [Example 28], the pIC50 was 6.00 to 7.00.
Take `COc1cccc2c1CCN(C(C)=O)C2CC(c1ccccc1)c1ccccc1` (stereo not drawn) [Example 29]: the pIC50 was 6.00 to 7.00.
The value for `COc1cc2c(cc1Br)CCN(C(=O)c1ccco1)C2CC(c1ccccc1)c1ccccc1` (stereo not drawn) [Example 30] was 6.00 to 7.00; that for `COc1cc2c(cc1Br)CCN(C(=O)COc1ccccc1)C2CC(c1ccccc1)c1ccccc1` (stereo not drawn) [Example 31] was 6.00 to 7.00; that for `COc1cc2c(cc1Br)CCN(C(=O)C1CCC1)C2CC(c1ccccc1)c1ccccc1` (stereo not drawn) [Example 32] was 6.00 to 7.00.
As to `COc1cc2c(cc1Br)CCN(C(=O)C1CCCCC1)C2CC(c1ccccc1)c1ccccc1` (stereo not drawn) [Example 33], the pIC50 is 6.00 to 7.00.
Then `CCCCCC(=O)N1CCc2cc(Br)c(OC)cc2C1CC(c1ccccc1)c1ccccc1` (stereo not drawn) [Example 34], with 6.00 to 7.00; and `CCCCCCC(=O)N1CCc2cc(Br)c(OC)cc2C1CC(c1ccccc1)c1ccccc1` (stereo not drawn) [Example 35], with above 7.00; and `COc1cc2c(cc1Br)CCN(C(=O)CC(C)(C)C)C2CC(c1ccccc1)c1ccccc1` (stereo not drawn) [Example 36], with 6.00 to 7.00.
Take `COc1cc2c(cc1Br)CCN(C(=O)c1cccc([N+](=O)[O-])c1)C2CC(c1ccccc1)c1ccccc1` (stereo not drawn) [Example 37]: the negative-log IC50 (pIC50) was 6.00 to 7.00.
Take `COc1cc2c(cc1Br)CCN(C(=O)c1ccc([N+](=O)[O-])cc1)C2CC(c1ccccc1)c1ccccc1` (stereo not drawn) [Example 38]: the negative-log IC50 (pIC50) was 6.00 to 7.00.
Consider `COc1cc2c(cc1Br)CCN(C(=O)c1ccc(C)cc1)C2CC(c1ccccc1)c1ccccc1` (stereo not drawn) [Example 39], for which the pIC50 is 6.00 to 7.00.
As to `COc1cc2c(cc1Br)CCN(C(=O)c1ccc(C(F)(F)F)cc1)C2CC(c1ccccc1)c1ccccc1` (stereo not drawn) [Example 40], the negative-log IC50 (pIC50) was 6.00 to 7.00.
Consider `COc1cc2c(cc1OC)C(CC(c1ccccc1)c1ccccc1)N(C(=O)c1ccco1)CC2` (stereo not drawn) [Example 41], for which the negative logarithm of the IC50 (pIC50) is 6.00 to 7.00.
With `COc1cc2c(cc1OC)C(CC(c1ccccc1)c1ccccc1)N(C(=O)c1ccccc1OC)CC2` (stereo not drawn) [Example 42], the pIC50 is 6.00 to 7.00.
Regarding `COc1cc2c(cc1OC)C(CC(c1ccccc1)c1ccccc1)N(C(=O)C1CCC1)CC2` (stereo not drawn) [Example 43], the pIC50 was 6.00 to 7.00.
Turning to `COc1cc2c(cc1OC)C(CC(c1ccccc1)c1ccccc1)N(C(=O)C1CCCCC1)CC2` (stereo not drawn) [Example 44], the pIC50 was above 7.00.
Regarding `CCCCCCC(=O)N1CCc2cc(OC)c(OC)cc2C1CC(c1ccccc1)c1ccccc1` (stereo not drawn) [Example 45], the pIC50 was 6.00 to 7.00.
With `COc1cc2c(cc1OC)C(CC(c1ccccc1)c1ccccc1)N(C(=O)c1ccc(C(F)(F)F)cc1)CC2` (stereo not drawn) [Example 54], the pIC50 was 6.00 to 7.00.
For the compound `COc1cc2c(cc1OC)C(CCc1ccccc1)N(C(=O)c1ccco1)CC2` (stereo not drawn) [Example 55], the pIC50 was above 7.00.
For the compound `COc1cc2c(cc1OC)C(CCc1ccccc1)N(C(=O)COc1ccccc1)CC2` (stereo not drawn) [Example 56], the negative-log IC50 (pIC50) was 6.00 to 7.00.
Consider `COc1cc2c(cc1OC)C(CCc1ccccc1)N(C(=O)C1CCC1)CC2` (stereo not drawn) [Example 57], for which the pIC50 was above 7.00.
As to `COc1cc2c(cc1OC)C(CCc1ccccc1)N(C(=O)C1CCCCC1)CC2` (stereo not drawn) [Example 58], the pIC50 was 6.00 to 7.00.
As for `COc1cc2c(cc1OC)C(CCc1ccccc1)N(C(=O)C(C)C)CC2` (stereo not drawn) [Example 59], the pIC50 was 6.00 to 7.00.
Then `CCCCCC(=O)N1CCc2cc(OC)c(OC)cc2C1CCc1ccccc1` (stereo not drawn) [Example 60], with 6.00 to 7.00.
The value for `CCCCCCC(=O)N1CCc2cc(OC)c(OC)cc2C1CCc1ccccc1` (stereo not drawn) [Example 61] was 6.00 to 7.00; that for `CCCCCCCCCC(=O)N1CCc2cc(OC)c(OC)cc2C1CCc1ccccc1` (stereo not drawn) [Example 62] was 6.00 to 7.00; that for `COc1cc2c(cc1OC)C(CCc1ccccc1)N(C(=O)CC(C)(C)C)CC2` (stereo not drawn) [Example 63] was 6.00 to 7.00.
For the compound `COc1ccc(C(=O)N2CCc3cc(OC)c(OC)cc3C2CCc2ccccc2)cc1` (stereo not drawn) [Example 64], the negative logarithm of the IC50 (pIC50) was above 7.00.
As for `COc1cc2c(cc1OC)C(CCc1ccccc1)N(C(=O)c1cccc([N+](=O)[O-])c1)CC2` (stereo not drawn) [Example 65], the pIC50 was 6.00 to 7.00.
The value for `COc1cc2c(cc1OC)C(CCc1ccccc1)N(C(=O)c1ccc([N+](=O)[O-])cc1)CC2` (stereo not drawn) [Example 66] was 6.00 to 7.00; that for `COc1cc2c(cc1OC)C(CCc1ccccc1)N(C(=O)c1cccc(C)c1)CC2` (stereo not drawn) [Example 67] was 6.00 to 7.00; that for `COc1cc2c(cc1OC)C(CCc1ccccc1)N(C(=O)Cc1ccccc1)CC2` (stereo not drawn) [Example 68] was 6.00 to 7.00.
